Reference: US9498546B2, “Synthesis and application of novel imaging agents conjugated to DPA 713 analogs for imaging inflammation” (THE JOHNS HOPKINS UNIVERSITY, priority 2012, dated 2016)

Legend:
[1] = molecular target: T1, TSPO (3H-R-PK11195 binding in J774 macrophages) (Mus musculus, UniProt P50637); assay: IC50 determination: inhibition of [3H]PK11195 binding in live J774 macrophage-like cells; design: species or system murine; settings: fixed concentration of [3H]PK11195, FIG. 3
T1 construct: using a fixed number of live murine J774 macrophage-like cells; endogenous in cells; host or cells: J774 murine macrophage-like cell line (live cells)
Protocol: FIG. 3 is a graph showing the IC50 for inhibition of 3H-R-PK11195 binding in J774 macrophages by DPA713-IRDye680LT (nM).
The IC50 value determination was done by using a fixed number of live murine J774 macrophage-like cells and incubating increasing concentrations of DPA-713-IRDye against a fixed concentration of [^3H]PK11195. All reactions and washes (50 mM Tris, pH 7.4) are done using a Brandell Cell Harvester and the cells are counted in a scintillation counter with scintillent at the end. The cpm for each group is then plotted against the log of DPA-713-IRDye concentration and the data fitted to a sigmoidal curve. The 50% inhibition of [^3H]PK11195 binding is then determined and reported as the IC50 (FIG. 3).

[2] = tested on: TSPO+ MDA-MB-231 / MDA-MB-231-PSMA xenografts; assay: In vivo NIRF imaging in TSPO+ MDA-MB-231 breast cancer xenograft bearing mice; design: species or system NOD-SCID mice; settings: 6 nmol intraperitoneally; imaged 1-24 hours
Protocol: Cell lines and Tumor Models. Generation of MDA-MD-231-LMD-PSMA cells. LV-PSMA is a VSV-G pseudotyped lentivirus encoding PSMA which was packaged in 293T cells. LMD-PSMA cells were generated in-house by repetitive lentiviral transduction of a cell line isolated from a lung metastasis derived MDA-MB-231 xenograft in a female NOD-SCID mouse. PSMA expression was evaluated by western blot analysis with 7E11-05 (1:200 dilution). […] Six-to-eight week old female NOD SCID mice were injected subcutaneously with 5×10^6 MDA-MB-231-LMD (a lung metastasis-derived subline of parental MDA-MB-231 behind the right forearm and 5×10^6 MDA-MB-231-LMD-PSMA (the same cell line with Prostate Specific Membrane Antigen (PSMA) stably knocked in via lentiviral vector) injected behind the […] xenografts were allowed to grow until the PSMA xenograft was at least 3 mm in diameter while the −LMD xenograft had reached 6-8 mm in diameter.
Serial in vivo NIRF imaging in TSPO+MDA-MB-231 LMD±PSMA and PC-3 PIP and -flu tumor xenograft bearing mice. MDA-MB-231 LMD lines: one mouse was imaged serially at 1 hour post-tracers, 4 hours, 8 hours and 24 hours post-tracers using a Pearl Impulse Imager (LI-COR Biosciences) with dedicated 710 and 800 nm emission filters. All images were scaled to the same maximum using the manufacturer's software to facilitate direct comparison of all timepoints. […]

[3] = tested on: TSPO+ PC-3 PIP and PC-3 flu prostate xenografts; assay: In vivo NIRF imaging in PC-3 PIP and PC-3 flu xenograft bearing mice; design: species or system athymic nude mice; settings: for Distribution of fluorescent signal, tracer only: 8 nmol intraperitoneally
Protocol: (§1) FIG. 7 depicts imaging of athymic nude mice bearing two subcutaneous xenografts each consisting of one PC-3 PIP (PSMA+ stable transfected, macrophage and vasculature enriched) and PC-3 flu (PC-3 transfected with empty vector) were injected intraperitoneally with 8 nmol of DPA-713-IRDye680LT when the tumors reached 4-8 mm in diameter. […] The mice were imaged in vivo at 1 hour post-injection and again at 24 hours post-injection.
Prostate lines PC-3 PIP (PSMA stable transfected) and PC-3 flu (empty vector transfected) cells were originally a gift from Warren B. Heston (Cleveland Clinic Foundation). PC-3 is androgen insensitive and constituitively expresses TSPO. […] Intact male athymic nude mice were inoculated subcutaneously with 2×10^6 PC-3 PIP cells behind the right forearm and 2×10^6 PC-3 flu cells behind the left forearm and were allowed to grow for 14 days until they reached 1 cm in longest diameter. Mice bearing LNCaP xenografts were inoculated with 5×10^6 cells in Matrigel (1:1, vol:vol) (Becton Dickenson, Franklin Lakes, N.J.) and were allowed to grow for a year before they reached 1 cm in diameter. The mice were then used in imaging experiments as described below.
PC-3 PIP and -flu xenograft bearing mice. […] The mice were anesthetized with isoflurane gas (2% in oxygen) and imaged at 1 hour and 24 hours post-injection using the Pearl Impulse imager using the 680 absorption/710 emission channels (DPA-713-IRDye680LT). PIP/flu and LNCaP-bearing mice were imaged using the inventive probe DPA-713-IRDye800CW at 1 hour post-injection using a Perkin Elmer IVIS 200 instrument set to absorb at 790 nm and emit at 810 nm. Images were visualized and processed using the manufacturer's Living Image software.
as §1, with “Prostate tumors that have become androgen insensitive constituitively express TSPO, including the PC-3 cell line. Athymic” for “FIG. 7 depicts imaging of athymic”

**Q.** For CCN(CC)C(=O)Cc1c(-c2ccc(OCCNC(=O)CCCCc3cccc(C(=C\C=C4/N(CCCS(=O)(=O)O)c5ccc6c(S(=O)(=O)O)cc(S(=O)(=O)O)cc6c5C4(C)C)/C=C/C4=[N+](CCCS(=O)(=O)[O-])c5ccc6c(S(=O)(=O)O)cc(S(=O)(=O)O)cc6c5C4(C)C)c3)cc2)nn2c(C)cc(C)nc12 [DPA-713-IRDye680LT, 3-(2-((1E,3Z,5Z)-3-(3-(5-(2-(4-(3-(2-(diethylamino)-2-oxoethyl)-5,7-dimethylpyrazolo[1,5-a]pyrimidin-2-yl)phenoxy)ethylamino)-5-oxopentyl)phenyl)-5-(1,1-dimethyl-6,8-disulfo-3-(3-sulfopropyl)-1Hbenzo[e]indol-2(3H)-ylidene)penta-1,3-dienyl)-1,1-dimethyl-6,8-disulfo-1H-benzo[e]indolium-3-yl)propane-1-sulfonate], which IC50 [1] is on record?
**A.** Its IC50 is about 325 nM.

**Q.** And the “Probe uptake in the larger (8 mm) PSMA+ xenograft” value [2]?
**A.** Its value is “visible 1 hour following peritoneal injection and continues through 24 hours after injection”.

**Q.** And the “Probe uptake in the smaller (3 mm) parental xenograft” value [2]?
**A.** The value was “no observable uptake until the fur and skin are removed at 24 hours post-injection”.

**Q.** What about the “Distribution of fluorescent signal, tracer only” value ([3]; 1 hour post-injection) of the same compound?
**A.** The value was “only the macrophage enriched PC-3 PIP tumor is clearly visible”.

**Q.** And the “Distribution of fluorescent signal, tracer only” value ([3]; 24 hours post-injection)?
**A.** The value was “distributed at the periphery of both tumors in the tracer-only mouse and is strongly retained by TSPO+ kidneys”.

**Q.** What about the “Tumor uptake with co-administered unlabeled DPA-713” value ([3]; 8 nmol tracer + 20 mg/kg unlabeled DPA-713, 1 hour post-injection) of the same compound?
**A.** The value was “Neither tumor takes up the fluorescent probe”.

**Q.** What about the “Tumor and kidney uptake with co-injected unlabeled DPA-713” value ([3]; 8 nmol tracer + 20 mg/kg unlabeled DPA-713, 24 hours post-injection) of the same compound?
**A.** Its value is “neither tumor nor kidney uptake”.

**Q.** And the “Clearance of unbound probe” value ([3]; 24 hours post-injection, intraperitoneal)?
**A.** The value was “cleared from the peritoneal space”.
